From ChEMBL document CHEMBL3286370, “Synthesis of triterpenoid triazine derivatives from allobetulone and betulonic acid with biological activities” (Bioorg Med Chem, 2014)

How the values were obtained:
Human alphaherpesvirus 1 [1] = assay: Antiviral activity against thymidine kinase-deficient ACV-resistant Herpes simplex virus type 1 KOS assessed as reduction in virus-induced cytopathogenicity by cell-based assay; assay type: functional, organism-based; conditions: Human alphaherpesvirus 1, KOS
Human alphaherpesvirus 3 [2] = assay: Antiviral activity against Varicella zoster virus Oka assessed as reduction in virus-induced cytopathogenicity by cell-based assay; assay type: functional, organism-based; conditions: Human alphaherpesvirus 3, strain Oka vaccine
Human alphaherpesvirus 2 = assay: Antiviral activity against Herpes simplex virus type 2 G assessed as reduction in virus-induced cytopathogenicity by cell-based assay; assay type: functional, organism-based; conditions: Human alphaherpesvirus 2, strain G
Human betaherpesvirus 5 [3] = assay: Antiviral activity against Human cytomegalovirus Davis assessed as reduction in viral plaque formation; assay type: functional, organism-based; conditions: Human betaherpesvirus 5, Davis
[4] = Cytotoxicity against HEL cells assessed as alteration in cellular morphology; assay type: cell-based; conditions: human
Human alphaherpesvirus 3 [5] = assay: Antiviral activity against thymidine kinase-deficient Varicella zoster virus 07-1 assessed as reduction in virus-induced cytopathogenicity by cell-based assay; assay type: functional, organism-based; conditions: Human alphaherpesvirus 3, 07-1
CCRF-CEM = assay: Cytostatic activity against human CEM cells after 72 hrs by Coulter counting analysis; assay type: functional, cell-based
Human alphaherpesvirus 1 [6] = assay: Antiviral activity against Herpes simplex virus type 1 KOS assessed as reduction in virus-induced cytopathogenicity by cell-based assay; assay type: functional, organism-based; conditions: Human alphaherpesvirus 1, KOS
[7] = Cytotoxicity against HEL cells assessed as growth inhibition; assay type: cell-based; conditions: human
L1210 = assay: Cytostatic activity against mouse L1210 cells after 48 hrs by Coulter counting analysis; assay type: functional, cell-based; conditions: L1210, 48 h
Human betaherpesvirus 5 [8] = assay: Antiviral activity against Human cytomegalovirus AD169 assessed as reduction in viral plaque formation; assay type: functional, organism-based; conditions: Human betaherpesvirus 5, AD169
HeLa = assay: Cytostatic activity against human HeLa cells after 72 hrs by Coulter counting analysis; assay type: functional, cell-based

Structure (SMILES)	EC50 (Human alphaherpesvirus 1 [1])	EC50 (Human alphaherpesvirus 3 [2])	EC50 (Human alphaherpesvirus 2)	EC50 (Human betaherpesvirus 5 [3])	MCC [4]	EC50 (Human alphaherpesvirus 3 [5])	IC50 (CCRF-CEM)	EC50 (Human alphaherpesvirus 1 [6])	CC50 [7]	IC50 (L1210)	EC50 (Human betaherpesvirus 5 [8])	IC50 (HeLa)
C=C(C)[C@@H]1CC[C@]2(C(=O)O)CC[C@]3(C)[C@H](CC[C@@H]4[C@@]5(C)CC(=O)C(=O)C(C)(C)[C@@H]5CC[C@]43C)[C@@H]12	10 µM	10 µM	10 µM	2.9 µM	20 µM	10 µM	13 µM	10 µM	51 µM	12 µM	3 µM	19 µM
C=C(C)[C@@H]1CC[C@]2(C(=O)O)CC[C@]3(C)[C@H](CC[C@@H]4[C@@]5(C)Cc6n[nH]c(=S)nc6C(C)(C)[C@@H]5CC[C@]43C)[C@@H]12	–	–	–	≥ 20 µM	> 100 µM	–	204 µM	–	> 100 µM	196 µM	≥ 20 µM	160 µM
C=C(C)[C@@H]1CC[C@]2(C(=O)O)CC[C@]3(C)[C@H](CC[C@@H]4[C@@]5(C)Cc6nnc(SC)nc6C(C)(C)[C@@H]5CC[C@]43C)[C@@H]12	–	–	–	2 µM	20 µM	–	2.6 µM	–	45 µM	7.3 µM	1.8 µM	7.3 µM
C#CCCSc1nnc2c(n1)C(C)(C)[C@@H]1CC[C@]3(C)[C@H](CC[C@@H]4[C@H]5[C@H](C(=C)C)CC[C@]5(C(=O)O)CC[C@]43C)[C@@]1(C)C2	–	–	–	≥ 4 µM	20 µM	–	1.2 µM	–	55 µM	4.9 µM	> 4 µM	9.1 µM
C=C(C)[C@@H]1CC[C@]2(C(=O)O)CC[C@]3(C)[C@H](CC[C@@H]4[C@@]5(C)Cc6cc7c(nc6C(C)(C)[C@@H]5CC[C@]43C)SCC7)[C@@H]12	–	–	–	11 µM	–	–	3.8 µM	–	74 µM	7.8 µM	8.6 µM	10 µM
